In patent US5162571A, “Phenol derivatives, their production and use” (Takeda Chemical Industries, Ltd., priority 1987, dated 1992):

Tests used:
[1] = system: lipid peroxides production in rat brain homogenates; experiment: Inhibitory action on lipid peroxides production in rat brain homogenates; type: biochemical; conditions: 10^-5 M
Description: Inhibitory action on lipid peroxides production in rat brain homogenates
Method: The male SD rat brain tissue was used as 5% homogenate in phosphate-buffered solution. After incubation of the homogenate for 1 hour at 37° C., the amount of lipid peroxides produced was determined by the thiobarbituric acid method according to the description of Ohkawa et al. (Analytical Biochemistry, 95: 551, 1979)
Test compounds were used as a solution of dimethylsulfoxide. The inhibitory action on lipid peroxide production was expressed as a % inhibition as compared with the amount of production in the vehicle group.

[2] = molecular target: T1, Thromboxane A2 (TXA2) receptor (Oryctolagus cuniculus, UniProt Q6WQI8); experiment: Thromboxane A2 (TXA2) receptor antagonism: inhibitory effect on contraction of rabbit aorta by TXA2-mimics; type: cell-based; conditions: for inhibition at 10 µM: 10^-5 M; for inhibition at 1 µM: 10^-6 M; for inhibition at 0.1 µM: 10^-7 M
T1 construct: contraction by TXA2 mimics U-44069 or U-46619
T1 sequence (Q6WQI8 1-233): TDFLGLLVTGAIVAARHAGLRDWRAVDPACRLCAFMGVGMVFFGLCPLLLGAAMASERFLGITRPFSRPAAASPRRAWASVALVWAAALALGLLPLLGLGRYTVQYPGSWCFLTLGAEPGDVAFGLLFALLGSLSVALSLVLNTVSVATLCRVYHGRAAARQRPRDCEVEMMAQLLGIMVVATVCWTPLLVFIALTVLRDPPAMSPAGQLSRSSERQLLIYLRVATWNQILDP
Description: Thromboxane A2 (TXA2) receptor antagonism
Inhibitory effect on contraction of rabbit aorta by thromboxan A2 (TXA2)-mimics
Method: A spiral strip of the rabbit aorta (2-3 mm wide, about 3 cm long) was suspended in Krebs-Henseleit solution under the load of 2 g. The Krebs-Henseleit solution was saturated with a mixed gas of 95%O2 -5%CO2 and warmed at 37° C. Inhibition of the contraction of the vascular strip caused by a TXA2 mimic substance U-44069^1) (10^-7 M) or U-46619^2) (3×10 ^-8 M), by pretreatment with Compound No. 13 30 minutes before was studied.
1) U-44069: (5Z, 9α, 11α, 13E, 15S)-15-hydroxy-9,11-(epoxymethano)-prosta-5,13-dienoic acid (manufacturedby The Upjohn Company in U.S.A.)
2) U-46619: (5Z, 9α, 11α, […], 15S)-15-hydroxy-11,9-(epoxymethano)-prosta-5,13-dienoic acid (manufacturedby Cayman Chemical Company)
In Table 5, "*" represents addition of U-46619.

[3] = molecular target: T2, specific [^3 H] U-46619 binding to guinea pig platelet membrane (Cavia porcellus, UniProt A0A286Y4I8); experiment: Inhibition of specific [^3 H] U-46619 binding to guinea pig platelet membrane; conditions: [^3 H] U-46619, 25° C., 30 min; read-out: IC50 (Concentration for 50% inhibition)
T2 construct: Platelet membranes were prepared according to the following procedure; from tissue; host or cells: guinea pig platelet membranes
T2 sequence (A0A286Y4I8 1-347): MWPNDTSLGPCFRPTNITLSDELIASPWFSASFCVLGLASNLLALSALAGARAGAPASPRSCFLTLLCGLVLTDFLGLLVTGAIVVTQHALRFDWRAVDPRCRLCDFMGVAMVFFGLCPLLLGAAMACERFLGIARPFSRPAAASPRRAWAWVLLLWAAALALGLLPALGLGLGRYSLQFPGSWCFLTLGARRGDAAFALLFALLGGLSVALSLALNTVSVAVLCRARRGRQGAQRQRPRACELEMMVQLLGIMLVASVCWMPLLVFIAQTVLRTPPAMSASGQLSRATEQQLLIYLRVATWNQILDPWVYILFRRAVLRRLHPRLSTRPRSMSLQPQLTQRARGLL
Description: Inhibition of specific [^3 H] U-46619 binding to guinea pig platelet membrane
Method: Blood from normal guinea pig was collected into 0.315% citrate solution containing aspirin (final concentration 1 mM) and was centrifuged at 3000 r.p.m. for […]. The PRP (platelet rich plasma) was centrifuged at 4800 r.p.m for 10 min. at 4° C. Platelet membranes were prepared according to the following procedure: In order to remove the residual plasma protein, the platelet pellet was washed once with 30 ml of buffer containing 25 mM Tris-HCl/5 mM MgCl2 (pH 7.4) and recentrifuged to pellet the platelets. The platelets were then resuspended in 20 ml of the same buffer, and the cells were disrupted by sonication. The sonication was performed on ice using a Kontes Sonicator (Vineland, N.J.). The platelets were sonicated for a total of 90 sec. with a 15 sec. burst followed by a 15 sec. intermission. The sonicated mixture was centrifuged at 100,000×g for 1 hour and the membrane fraction was suspended in the same buffer. The protein concentration was adjusted to 1 mg/ml.
The binding assay was performed at 25° C. for 30 min. One ml of the resuspended membrane fraction was incubated with […] of [^3 H] U-46619. The incubation mixture was filtered through a glass fiber membrane (GF/C, whatman) to separate the membrane bound from free [^3 H] U-46619. The membranes were quickly washed twice with 5 ml of cold buffer, mixed with 4 ml of ACS scintillation fluid and counted for [^3 H] U-46619.

[4] = system: U-46619 (TXA2 mimic)-induced broncho-constriction; experiment: Inhibitory effect on U-46619 (TXA2 mimic)-induced broncho-constriction in guinea pig; type: in vivo; conditions: Cavia porcellus, ** p < 0.01; for inhibition in vivo at 5 mg/kg: 5 mg/kg p.o.
Description: Inhibitory effect on U-46619 (TXA2 mimic)-induced broncho-constrictionin guinea pig
Method: Eight male Hartley guinea pigs were used per one group. The guinea pig anesthetized with urethane (1.5 g/kg, i.p.) was fixed in a dorsal position, subjected to tracheotomy and connected to a respirator through a cannula. A side branch of the tracheal cannula was connected to a respirator (Harvard apparatus rodent respirator Type 680) at the rate of 70 strokes/min. and a constant volume of 3 to 5 ml.
Inflation pressure was kept constant at 10 cm H2 O.
After treatment with gallamine triethiodide (1 mg/kg, i.v.), U-46619 (10 μg/Kg) dissolved in a physiological saline solution was given through a carotid cannula and the airway resistance was measured by the overflow technique of Konzett-Rossler method (Konzett, H. and Rossler, R., Naunyn-Schmiedegerg's Arch, Exp. Path. Pharmak., 195, 71-74 (1940). A test compound was suspended in 5% gum arabic solution and was administered orally 1 hour before the treatment with U-46619.
Alternatively, a test compound was dissolved in aqueous 50% dimethylsulfoxide solution and administered interveneously in the dosage of 0.1 ml/100 g body weight 9 minutes before the treatment of U-46619.

[5] = molecular target: T3, 5-Lipoxygenase (Rattus norvegicus, UniProt P12527); experiment: 5-Lipoxygenase inhibitory activity (5-HETE production in RBL-1 cells); type: cell-based; conditions: read-out: Inhibitory effect on 5-HETE production (%); for inhibition at 10 µM: 10^-5 M; for inhibition at 1 µM: 10^-6 M; for inhibition at 0.1 µM: 10^-7 M
T3 construct: RBL-1 cells (rat basophilic leukemia cells); endogenous in cells; host or cells: RBL-1 (rat basophilic leukemia cells)
T3 sequence (P12527 1-673): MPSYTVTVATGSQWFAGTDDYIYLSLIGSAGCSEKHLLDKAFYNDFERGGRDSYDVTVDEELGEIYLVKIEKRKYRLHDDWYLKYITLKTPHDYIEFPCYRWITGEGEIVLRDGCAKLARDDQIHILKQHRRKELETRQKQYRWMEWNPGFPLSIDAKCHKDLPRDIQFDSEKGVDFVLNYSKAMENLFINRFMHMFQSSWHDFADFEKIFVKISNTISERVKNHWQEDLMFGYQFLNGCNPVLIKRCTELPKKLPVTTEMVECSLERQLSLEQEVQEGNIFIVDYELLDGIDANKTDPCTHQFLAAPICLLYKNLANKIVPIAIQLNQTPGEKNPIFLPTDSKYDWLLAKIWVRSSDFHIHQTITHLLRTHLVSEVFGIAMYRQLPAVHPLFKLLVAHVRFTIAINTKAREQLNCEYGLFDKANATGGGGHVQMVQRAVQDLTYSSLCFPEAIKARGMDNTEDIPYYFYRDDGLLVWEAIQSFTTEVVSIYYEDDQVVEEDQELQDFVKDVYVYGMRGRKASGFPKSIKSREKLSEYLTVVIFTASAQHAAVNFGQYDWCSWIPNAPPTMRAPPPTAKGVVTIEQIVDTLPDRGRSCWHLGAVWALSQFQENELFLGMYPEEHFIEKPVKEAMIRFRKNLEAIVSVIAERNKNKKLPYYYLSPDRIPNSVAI
Description: 5-Lipoxygenase inhibitory activity
Method: 10^7 RBL-1 cells (rat basophilic leukemia cells) were suspended in 0.5 ml of MCM (mast cell medium), and test solutions (made up of 0.5 ml of MCM, 50 μg of arachidonic acid, 10 μg of A-23187 (calcium ionophore) and 1 μM, 0.01 μM and 0.001 μM as the final concentration of the phenol compound, respectively) prepared previously were added respectively to the suspension, followed by reaction at 37° C. for 20 minutes. After the conclusion of the reaction, 4 ml of ethanol and 1,4-dimethoxy-2-methyl-3-(3-methoxypropyl)naphthalene as the internal reference drug were added to the reaction solution, and the mixture was shaken thoroughly and allowed to stand at room temperature for 10 minutes. Then, it was centrifuged (2000 r.p.m.) for 10 minutes, and the supernatant fluid was separated and concentrated to dryness under reduced pressure. 0.5 ml of 60% aqueous methanol was added to the concentrate, and 100 μl of the resulting solution was taken and subjected to high-performance liquid chromatography to determine the amount of 5-HETE (5-hydroxy-eicosatetraenoic acid). Determination of 5-HETE was made through measurement of an absorption at 237 nm with a UV absorption monitor.
The 5-HETE production inhibitory effect (IE) was expressed by [formula] wherein a is a peak height or peak area corrected by the peak for the internal reference when the phenol compound is not contained; b is a peak height or peak area corrected by the peak for the internal reference when the phenol compound is contained.

[6] = U-44069 (10^-7 M)-induced contraction
[7] = iv, 1.25 mg/kg i.v., 9 minutes before U-46619
[8] = addition of U-46619 (3×10^-8 M) (*)
[9] = po, 0.31 mg/kg p.o., 1 hour before U-46619

## Cc1cc(C)c(O)c(C(CCCCCCO)c2ccccc2)c1C (stereo not drawn) [Compound 5, 7-(2-hydroxy-3,5,6-trimethylphenyl)-7-phenylheptanol]
[1]
  Inhibition (%): 100%

## CCCCCCC(c1ccc(F)cc1)c1c(C)c(C)cc(C)c1O (stereo not drawn) [Compound 6]
[1]
  Inhibition (%): 100%

## Cc1c(C)c(C)c(C(CCCCCC(=O)O)c2ccc(F)cc2)c(O)c1C (stereo not drawn) [Compound 9]
[2]; [6]
  inhibition at 10 µM: 100%
  inhibition at 1 µM: 27%
[3]
  IC50: 0.13 µM
[4]; iv, 0.31 mg/kg i.v., 9 minutes before U-46619
  inhibition in vivo at 0.31 mg/kg: 65%
[1]
  Inhibition (%): 100%

## Cc1c(C)c(Cl)c(C)c(C(CCCCCC(=O)O)c2ccc(F)cc2)c1O (stereo not drawn) [Compound 17]
[2]; [6]
  inhibition at 1 µM: 98%
  inhibition at 0.1 µM: 12%
[3]
  IC50: 0.84 µM
[4]; [7]
  inhibition in vivo at 1.25 mg/kg: 71%

## Cc1c(C)c(Cc2ccccc2)c(C)c(C(CCCCCC(=O)O)c2ccc(F)cc2)c1O (stereo not drawn) [Compound 19]
[3]
  IC50: 0.16 µM

## Cc1c(C)c(Cc2ccc(F)cc2)c(C)c(C(CCCCCC(=O)O)c2ccc(F)cc2)c1O (stereo not drawn) [Compound 20]
[1]
  Inhibition (%): 74.5%

## Cc1c(C)c2c(c(C(CCCCCC(=O)O)c3ccc(F)cc3)c1O)CCC2 (stereo not drawn) [Compound 22]
[2]; [6]
  inhibition at 10 µM: 100%
  inhibition at 1 µM: 45%
[3]
  IC50: 0.16 µM
[4]; [7]
  inhibition in vivo at 1.25 mg/kg: 43%
[4]; po, 1 hour before U-46619
  inhibition in vivo at 5 mg/kg: 83%

## Cc1c(C)c(CO)c(C)c(C(CCCCCC(=O)O)c2ccc(F)cc2)c1O (stereo not drawn) [Compound 32, 7-(4-fluorophenyl)-7-(6-hydroxy-3-hydroxymethyl-2,4,5-trimethylphenyl)heptanoic acid]
[2]; [8]
  inhibition at 1 µM: 100%
  inhibition at 0.1 µM: 95%
[3]
  IC50: 0.032 µM
[4]; [9]
  inhibition in vivo at 0.31 mg/kg: 57%

## CC(=O)c1c(C)c(C)c(O)c(C(CCCCCC(=O)O)c2ccc(F)cc2)c1C (stereo not drawn) [Compound 35, 7-(3-acetyl-6-hydroxy-2,4,5-trimethylphenyl)-7-(4-fluorophenyl)heptanoic acid]
[2]; [8]
  inhibition at 1 µM: 98%
  inhibition at 0.1 µM: 23%
[3]
  IC50: 0.08 µM
[4]; po, 1 hour before U-46619
  inhibition in vivo at 5 mg/kg: 76%

## Cc1c(C)c2c(c(C(CCCCCC(=O)O)c3ccc(F)cc3)c1O)CCC2=O (stereo not drawn) [Compound 37, 7-(6,7-dimethyl-5-hydroxy-1-oxoindan-4-yl)-7-(4-fluorophenyl)heptanoic acid]
[2]; [8]
  inhibition at 0.1 µM: 100%
[3]
  IC50: 0.013 µM
[4]; po, 1.25 mg/kg p.o., 1 hour before U-46619
  inhibition in vivo at 1.25 mg/kg: 59%

## C=CCON=Cc1c(C)c(C)c(O)c(C(CCCCCC(=O)O)c2ccc(F)cc2)c1C (stereo not drawn) [Compound 52]
[2]; [8]
  inhibition at 0.1 µM: 96%
[3]
  IC50: 0.014 µM
[4]; [9]
  inhibition in vivo at 0.31 mg/kg: 36%

## CC(C)(C)c1cc(O)c(O)c(C(CCCCCC(=O)O)c2ccccc2)c1 (stereo not drawn) [Compound 56]
[1]
  Inhibition (%): 100%
[5]
  inhibition at 10 µM: 93%
  inhibition at 1 µM: 93%
  inhibition at 0.1 µM: 66%

## Cc1cc(O)c(O)c(C(CCCCCC(=O)O)c2ccc(F)cc2)c1C (stereo not drawn) [Compound 57, 7-(4-fluorophenyl)-7-(2,3-dihydroxy-5,6-dimethylphenyl)heptanoic acid]
[5]
  inhibition at 10 µM: 100%
  inhibition at 1 µM: 90%
  inhibition at 0.1 µM: 27%
